According to patent US9815819B2, “Complement pathway modulators and uses thereof” (priority 2012, dated 2017):
pIC50: −log10 of the molar value. Where two headings read alike, the source gives them in different places.

Target: Recombinant human factor D (Homo sapiens (Human), UniProt P00746)
Experiment: Human Complement Factor D Assay: Method 1
Format: biochemical
Settings: Factor D inhibition, Method 1: 10 nM factor D, 1 hour incubation with compound at room temperature, substrate Z-Lys-thiobenzyl, fluorescence readout; for pIC50: read-out: IC50
Description: Recombinant human factor D (expressed in E. coli and purified using standard methods) at 10 nM concentration is incubated with test compound at various concentrations for 1 hour at room temperature in 0.1 M Hepes buffer, pH 7.5, containing 1 mM MgCl2, 1 M NaCl and 0.05% CHAPS. […] IC50 values are calculated from percentage of inhibition of complement factor D-activity as a function of test compound concentration.

Chain of Recombinant human factor D (P00746 26-253): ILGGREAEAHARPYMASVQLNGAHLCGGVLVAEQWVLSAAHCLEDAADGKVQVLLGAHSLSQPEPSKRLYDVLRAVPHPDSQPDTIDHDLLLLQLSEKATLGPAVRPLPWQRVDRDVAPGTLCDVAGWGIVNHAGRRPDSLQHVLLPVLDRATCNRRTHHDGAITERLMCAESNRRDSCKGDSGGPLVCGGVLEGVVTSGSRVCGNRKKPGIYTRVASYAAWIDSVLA

pIC50	Structure (SMILES)	IC50 (IC50 (μM))
7.51	CCc1cc2c(C(N)=O)nn(CC(=O)N3[C@@H]4C[C@@H]4C[C@H]3C(=O)N[C@@H]3C[C@H]3c3ccccc3)c2cn1 [Example 19, 5-Ethyl-1-{2-oxo-2-[(1R,3S,5R)-3-((1R,2S)-2-phenyl-cyclopropylcarbamoyl)-2-aza-bicyclo[3.1.0]hex-2-yl]-ethyl}-1H-pyrazolo[3,4-c]pyridine-3-carboxylic acid amide]	–
6.10	CC(=O)c1nn(CC(=O)N2[C@@H]3C[C@@H]3C[C@H]2C(=O)N[C@H]2C[C@@H]2c2ccccc2F)c2ncccc12 [Example 64, (1R,3S,5R)-2-[2-(3-Acetyl-pyrazolo[3,4-b]pyridin-1-yl)-acetyl]-2-aza-bicyclo[3.1.0] hexane-3-carboxylic acid [(1S,2R)-2-(2-fluoro-phenyl)-cyclopropyl]-amide]	–
6.26	CC(=O)c1nn(CC(=O)N2[C@@H]3C[C@@H]3C[C@H]2C(=O)NC2CC2c2cccc(C(F)(F)F)c2)c2cnccc12 (stereo partly drawn) [Example 33, (1R,3S,5R)-2-[2-(3-Acetyl-pyrazolo[3,4-c]pyridin-1-yl)-acetyl]-2-aza-bicyclo[3.1.0] hexane-3-carboxylic acid [2-(3-trifluoromethyl-phenyl)-cyclopropyl]-amide]	–
6.04	CC(=O)c1nn(CC(=O)N2[C@@H]3C[C@@H]3C[C@H]2C(=O)NC2CC(c3ccccc3)C2)c2ncccc12 (stereo partly drawn) [Example 35, (1R,3S,5R)-2-[2-(3-Acetyl-pyrazolo[3,4-b]pyridin-1-yl)-acetyl]-2-aza-bicyclo[3.1.0] hexane-3-carboxylic acid (3-phenyl-cyclobutyl)-amide]	–
6.96	CC(=O)c1nn(CC(=O)N2[C@@H]3C[C@@H]3C[C@H]2C(=O)N[C@@H]2C[C@H]2c2cccc(Cl)c2F)c2ncccc12 [Example 56, (1R,3S,5R)-2-[2-(3-Acetyl-pyrazolo[3,4-b]pyridin-1-yl)-acetyl]-2-aza-bicyclo[3.1.0]hexane-3-carboxylic acid [(1R,2S)-2-(3-chloro-2-fluoro-phenyl)-cyclopropyl]-amide]	–
6.33	CC(=O)c1nn(CC(=O)N2[C@@H]3C[C@@H]3C[C@H]2C(=O)NC2CC(c3ccccc3F)C2)c2ncccc12 (stereo partly drawn) [Example 36, (1R,3S,5R)-2-[2-(3-Acetyl-pyrazolo[3,4-b]pyridin-1-yl)-acetyl]-2-aza-bicyclo[3.1.0] hexane-3-carboxylic acid [3-(2-fluoro-phenyl)-cyclobutyl]-amide]	–
6.90	Cc1cc2c(C(N)=O)nn(CC(=O)N3[C@@H]4C[C@@H]4C[C@H]3C(=O)N[C@@H]3C[C@H]3c3ccccc3F)c2cn1 [Example 70, 1-(2-{(1R,3S,5R)-3-[(1R,2S)-2-(2-Fluoro-phenyl)-cyclopropylcarbamoyl]-2-aza-bicyclo[3.1.0]hex-2-yl}-2-oxo-ethyl)-5-methyl-1H-pyrazolo[3,4-c]pyridine-3-carboxylic acid amide]	–
6.91	CC(=O)c1nn(CC(=O)N2[C@@H]3C[C@@H]3C[C@H]2C(=O)N[C@@H]2C[C@H]2c2ccccc2)c2ncccc12 [Example 8, (1R,3S,5R)-2-[2-(3-Acetyl-pyrazolo[3,4-b]pyridin-1-yl)-acetyl]-2-aza-bicyclo[3.1.0]hexane-3-carboxylic acid ((1R,2S)-2-phenyl-yclopropyl)-amide]	–
6.00	CC(=O)c1nn(CC(=O)N2[C@@H]3C[C@@H]3C[C@H]2C(=O)N[C@H]2C[C@]2(F)c2ccccc2)c2cnccc12 [Example 47, (1R,3S,5R)-2-[2-(3-Acetyl-pyrazolo[3,4-c]pyridin-1-yl)-acetyl]-2-aza-bicyclo[3.1.0] hexane-3-carboxylic acid ((1S,2S)-2-fluoro-2-phenyl-cyclopropyl)-amide]	–
5.80	CC(=O)c1nn(CC(=O)N2[C@@H]3C[C@@H]3C[C@H]2C(=O)N[C@H]2C[C@@H]2c2cccc(Cl)c2)c2ncccc12 [Example 55, (1R,3S,5R)-2-[2-(3-acetyl-pyrazolo[3,4-b]pyridin-1-yl)-acetyl]-2-aza-bicyclo[3.1.0]hexane-3-carboxylic acid[(1S,2R)-2-(3-chloro-phenyl)-cyclopropyl]-amide]	–
6.76	NC(=O)c1nn(CC(=O)N2[C@@H]3C[C@@H]3C[C@H]2C(=O)N[C@@H]2C[C@H]2c2ccccc2)c2ncccc12 [Example 13, 1-{2-Oxo-2-[(1R,3S,5R)-3-((1R,2S)-2-phenyl-cyclopropylcarbamoyl)-2-aza-bicyclo[3.1.0]hex-2-yl]-ethyl}-1H-pyrazolo[3,4-b]pyridine-3-carboxylic acid amide]	–
7.35	Cc1cc2c(C(N)=O)nn(CC(=O)N3[C@@H]4C[C@@H]4C[C@H]3C(=O)N[C@@H]3C[C@H]3c3ccccc3Cl)c2cn1 [Example 73, 1-(2-{(1R,3S,5R)-3-[(1R,2S)-2-(2-Chloro-phenyl)-cyclopropylcarbamoyl]-2-aza-bicyclo[3.1.0]hex-2-yl}-2-oxo-ethyl)-5-methyl-1H-pyrazolo[3,4-c]pyridine-3-carboxylic acid amide]	–
7.19	CC(=O)c1nn(CC(=O)N2[C@@H]3C[C@@H]3C[C@H]2C(=O)N[C@@H]2C[C@H]2c2ccccc2F)c2ncccc12 [Example 63, (1R,3S,5R)-2-[2-(3-Acetyl-pyrazolo[3,4-b]pyridin-1-yl)-acetyl]-2-aza-bicyclo[3.1.0] hexane-3-carboxylic acid [(1R,2S)-2-(2-fluoro-phenyl)-cyclopropyl]-amide]	–
6.93	NC(=O)c1nn(CC(=O)N2C[C@H](F)C[C@H]2C(=O)N[C@@H]2C[C@H]2c2ccccc2)c2ncccc12 [Example 17, 1-{2-[(2S,4R)-4-Fluoro-2-((1R,2S)-2-phenyl-cyclopropylcarbamoyl)-pyrrolidin-1-yl]-2-oxo-ethyl}-1H-pyrazolo[3,4-b]pyridine-3-carboxylic acid amide]	–
7.18	CC(=O)c1nn(CC(=O)N2[C@@H]3C[C@@H]3C[C@H]2C(=O)N[C@@H]2C[C@@]2(F)c2ccccc2)c2ncccc12 [Example 44, (1R,3S,5R)-2-[2-(3-Acetyl-pyrazolo[3,4-b]pyridin-1-yl)-acetyl]-2-aza-bicyclo[3.1.0] hexane-3-carboxylic acid ((1R,2R)-2-fluoro-2-phenyl-cyclopropyl)-amide]	–

Continued, compound first:

Structure (SMILES)	pIC50	IC50 (IC50 (μM))
CC(=O)c1nn(CC(=O)N2[C@H](C(=O)N[C@@H]3C[C@H]3c3ccccc3)C[C@@]3(CO)C[C@@H]23)c2cnccc12 [Example 29, (1R,3S,5S)-2-[2-(3-Acetyl-pyrazolo[3,4-c]pyridin-1-yl)-acetyl]-5-hydroxymethyl-2-aza-bicyclo[3.1.0]hexane-3-carboxylic acid((1R,2S)-2-phenyl-cyclopropyl)-amide]	6.92	–
NC(=O)c1nn(CC(=O)N2[C@@H]3C[C@@H]3C[C@H]2C(=O)NC2CC2c2ccc(F)cc2F)c2ccccc12 (single isomer, unassigned) [Example 77]	6.19	–
CC(=O)c1nn(CC(=O)N2[C@@H]3C[C@@H]3C[C@H]2C(=O)N[C@@H]2C[C@H]2c2ccccc2F)c2cc(C(=O)O)ccc12 [Example 87, 3-Acetyl-1-(2-{(1R,3S,5R)-3-[(1R,2S)-2-(2-fluoro-phenyl)-cyclopropylcarbamoyl]-2-aza-bicyclo[3.1.0]hex-2-yl}-2-oxo-ethyl)-1H-indazole-6-carboxylic acid]	7.34	–
NC(=O)c1nn(CC(=O)N2[C@@H]3C[C@@H]3C[C@H]2C(=O)NC2CCCC(c3ccccc3)C2)c2ccccc12 (single isomer, unassigned) [Example 78]	–	2 µM
NC(=O)c1nn(CC(=O)N2C[C@H](F)C[C@H]2C(=O)N[C@@H]2C[C@H]2c2ccccc2F)c2cnccc12 [Example 40, 1-(2-{(2S,4R)-4-Fluoro-2-[(1R,2S)-2-(2-fluoro-phenyl)-cyclopropylcarbamoyl]-pyrrolidin-1-yl}-2-oxo-ethyl)-1H-pyrazolo[3,4-c]pyridine-3-carboxylic acid amide]	6.85	–
NC(=O)c1nn(CC(=O)N2C[C@H](F)C[C@H]2C(=O)N[C@H]2C[C@@H]2c2ccccc2F)c2cnccc12 [Example 41, 1-(2-{(2S,4R)-4-Fluoro-2-[(1S,2R)-2-(2-fluoro-phenyl)-cyclopropylcarbamoyl]-pyrrolidin-1-yl}-2-oxo-ethyl)-1H-pyrazolo[3,4-c]pyridine-3-carboxylic acid amide]	5.93	–
CC(=O)c1nn(CC(=O)N2[C@@H]3C[C@@H]3C[C@H]2C(=O)N[C@@H]2C[C@H]2c2ccccc2)c2ccccc12 [Example 2, (1R,3S,5R)-2-[2-(3-Acetyl-indazol-1-yl)-acetyl]-2-aza-bicyclo[3.1.0] hexane-3-carboxylic acid ((1R,2S)-2-phenyl-cyclopropyl)-amide]	7.54	–
CC(=O)c1nn(CC(=O)N2[C@@H]3C[C@@H]3C[C@H]2C(=O)N[C@@]2(C)C[C@@H]2c2ccccc2)c2cnccc12 [Example 23, (1R,3S,5R)-2-[2-(3-Acetyl-pyrazolo[3,4-c]pyridin-1-yl)-acetyl]-2-aza-bicyclo[3.1.0] hexane-3-carboxylic acid ((1S,2R)-1-methyl-2-phenyl-cyclopropyl)-amide]	4.88	–
CC(=O)c1nn(CC(=O)N2[C@@H]3C[C@@H]3C[C@H]2C(=O)N[C@]2(C)C[C@H]2c2ccccc2)c2cnccc12 [Example 22, (1R,3S,5R)-2-[2-(3-Acetyl-pyrazolo[3,4-c]pyridin-1-yl)-acetyl]-2-aza-bicyclo[3.1.0] hexane-3-carboxylic acid ((1R,2S)-1-methyl-2-phenyl-cyclopropyl)-amide]	6.06	–
Cc1cc2c(C(N)=O)nn(CC(=O)N3C[C@H](F)C[C@H]3C(=O)N[C@@H]3C[C@H]3c3ccccc3F)c2cn1 [Example 71, 1-(2-{(2S,4R)-4-Fluoro-2-[(1R,2S)-2-(2-fluoro-phenyl)-cyclopropylcarbamoyl]-pyrrolidin-1-yl}-2-oxo-ethyl)-5-methyl-1H-pyrazolo[3,4-c]pyridine-3-carboxylic acid amide]	7.05	–
CC(=O)c1nn(CC(=O)N2[C@@H]3C[C@@H]3C[C@H]2C(=O)NC2CCC(c3ccccc3)CC2)c2cnccc12 (stereo partly drawn) [Example 37, (1R,3S,5R)-2-[2-(3-Acetyl-pyrazolo[3,4-c]pyridin-1-yl)-acetyl]-2-aza-bicyclo[3.1.0] hexane-3-carboxylic acid (4-phenyl-cyclohexyl)-amide]	5.98	–
